Test results published in PMC10108349, “Small-Molecule Fluorescent Ligands for the CXCR4 Chemokine Receptor” (Journal of Medicinal Chemistry, 2023).

Legend:
[1] = system: HEK293G cells stably expressing SNAP-CXCR4; assay: Confocal microscopy of fluorescent ligand binding; format: cell-based, human; conditions: for localisation of fluorescence in cells: 30 min at 37 °C; for binding after treatment with AMD3100: 10 μM AMD3100, 30 min pre-incubation; for membrane fluorescence after pretreatment with IT1t or AMD3100: 10 μM IT1t or 10 μM AMD3100, 30 min pre-incubation
Experimental: HEK293G-SNAP-CXCR4 cells were seeded onto poly-D-lysine-coated (10 μg/mL) 8-well Nunc Lab-tek chambered coverglass (no. 1.0 borosilicate glass bottom) in DMEM supplemented with 10% FCS at a density of 30,000 cells per well. The following day, media were replaced with fresh media supplemented with 10% FCS containing 0.5 μM SNAP-Surface Alexa Fluor 488 (New England Biolabs, Hitchin UK) for 30 min at 37 °C. […]
Cells were imaged on a Zeiss LSM880 with a Zeiss Axio Observer Z1 stand (Carl Zeiss, Germany) using a 40× C-apochromat NA1.2 water immersion objective. Excitation was via a 488 nm argon (to image SNAP-Surface Alexa Fluor 488) and 633 nm helium-neon (to image fluorescent ligands) laser lines with a 488/561/633 multibeam splitter and emission collected using a 493–628 nm band pass or 638–737 nm band pass. The pinhole was set at 1 Airy unit for the longer wavelength and laser power and gain and offset settings kept constant within the experiment to allow comparison. Equatorial plane images were made and four images were captured per condition per experiment using ZEN 2012 software (Carl Zeiss, Germany). Imaging of each ligand was performed at least three times.

NLuc-CXCR4 = biological target: T1, NLuc-CXCR4 (Homo sapiens, UniProt P61073); format: binding
T1 construct: expressed in transfected cells; membranes prepared from them
T1 sequence (P61073 whole entry): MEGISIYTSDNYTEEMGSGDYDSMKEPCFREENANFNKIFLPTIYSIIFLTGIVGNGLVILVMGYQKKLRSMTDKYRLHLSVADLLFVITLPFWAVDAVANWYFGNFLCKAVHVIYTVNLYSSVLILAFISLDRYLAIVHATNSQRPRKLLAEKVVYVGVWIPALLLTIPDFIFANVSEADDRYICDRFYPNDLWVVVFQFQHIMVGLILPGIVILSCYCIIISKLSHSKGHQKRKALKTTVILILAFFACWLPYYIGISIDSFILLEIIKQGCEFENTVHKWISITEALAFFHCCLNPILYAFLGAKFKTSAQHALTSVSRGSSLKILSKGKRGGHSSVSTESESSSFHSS
Experimental: In white clear-bottom 96-well plates or white opaque bottom 96-well plates, membranes expressing NLuc-CXCR4 were diluted to 10 μg per well in 20 μL of HBSS containing 0.2% BSA. […] Plates were then incubated in the dark for 2 h at 37 °C in the absence of CO2. The NLuc substrate furimazine (Promega Corporation) was then added (5 μL per well, 10 μM final concentration) and the plates were read using the PHERAstar FS plate reader (BMG Labtech, UK) at room temperature. The filtered light from each well was simultaneously measured using a 460 nm (80 nm band-pass filter) for NLuc emission and >610 nm longpass filter for fluorescence emission of BODIPY 630/650-X coupled ligands. For BODIPY-FL-X coupled ligands, emissions were simultaneously measured at 475 nm (30 nm band-pass filter; NLuc emission) and 535 nm (30 nm bandpass filter; BODIPY FL-X emission). The resulting raw BRET ratio was calculated by dividing the >610 nm emission (for red ligands) or the 535 nm emission (for green ligands) by the emissions measured for NLuc. […]

Molecule	localisation of fluorescence in cells ([1]; 50 nM ligand)	binding after treatment with AMD3100 ([1]; 50 nM ligand)	localisation of fluorescence in cells ([1]; 100 nM ligand)	membrane fluorescence after pretreatment with IT1t or AMD3100 ([1]; 100 nM ligand)	also measured
O=C(CCCCCNC(=O)COc1ccc(/C=C/C2=[N+]3C(=Cc4ccc(-c5cccs5)n4[B-]3(F)F)C=C2)cc1)NCCCCN(Cc1nc2ccccc2[nH]1)[C@H]1CCCc2cccnc21 [Compound 24, (S,E)-N-(4-(((1H-Benzo[d]imidazole-2-yl)methyl) (5,6,7,8-tetrahydroquinolin-8-yl)amino)butyl)-6-(2-(4-(2-(5,5-difluoro-7-(thiophen-2-yl)-5H-4λ4,5λ4-dipyrrolo [1,2-c:2′,1′-f][1,3,2]diazaborinin-3-yl)vinyl)phenoxy)acetamido)hexanamide]	reasonable membrane fluorescence; however, intracellular fluorescence was also apparent	reduced binding to cell surface receptors			
CN1\C(=C/C=C/C=C/C2=[N+](CCCCCC(=O)N[C@H]3CC[C@H](/N=C(/NC4CCCCC4)SCC4=CSC5=NC(C)(C)CN45)CC3)c3ccc(S(=O)(=O)[O-])cc3C2(C)C)C(C)(C)c2cc(S(=O)(=O)O)ccc21 [Compound 11, 1-(6-(((1R,4R)-4-(((Z)-(Cyclohexylamino) (((6,6-dimethyl-5,6-dihydroimidazo[2,1-b]thiazol-3-yl)methyl)thio)methylene)amino)cyclohexyl)amino)-6-oxohexyl)-3,3-dimethyl-2-((1E,3E)-5-((Z)-1,3,3-trimethyl-5-sulfoindolin-2-ylidene)penta-1,3-dien-1-yl)-3H-indol-1-ium-5-sulfonate]			highly localized to the cell membrane	completely prevented	
CXCL12: chemokine, the only endogenous ligand of CXCR4, purchased from PeproTech					concentration-dependent decrease of the BRET signal (NLuc-CXCR4): not; displacement of fluorescently labeled CXCL12 (NLuc-CXCR4): fully displaced
CN(Cc1ncc2ccccc2c1CCCNC(=O)CCCCCNC(=O)COc1ccc(/C=C/C2=[N+]3C(=Cc4ccc(-c5cccs5)n4[B-]3(F)F)C=C2)cc1)[C@H]1CCCc2cccnc21 [Compound 18a, (S,E)-6-(2-(4-(2-(5,5-Difluoro-7-(thiophen-2-yl)-5H-4λ^4,5λ^4-dipyrrolo[1,2-c:2′,1′-f][1,3,2]diazaborinin-3-yl)vinyl)phenoxy)acetamido)-N-(3-(3-((methyl(5,6,7,8-tetrahydroquinolin-8-yl)amino)methyl)isoquinolin-4-yl)propyl)hexanamide]	reasonable membrane fluorescence; however, intracellular fluorescence was also apparent	reduced binding to cell surface receptors			
CC1(C)CN2C(CS/C(=N/[C@H]3CC[C@H](NC(=O)CCCCCNC(=O)COc4ccc(/C=C/C5=[N+]6C(=Cc7ccc(-c8cccs8)n7[B-]6(F)F)C=C5)cc4)CC3)NC3CCCCC3)=CSC2=N1 [Compound 10, (6,6-Dimethyl-5,6-dihydroimidazo[2,1-b]thiazol-3-yl)methyl (E)-N-Cyclohexyl-N′-((1R,4R)-4-(6-(2-(4-((E)-2-(5,5-difluoro-7-(thiophen-2-yl)-5H-4λ^4,5λ^4-dipyrrolo[1,2-c:2′,1′-f][1,3,2]diazaborinin-3-yl)vinyl)phenoxy)acetamido)hexanamido)cyclo-hexyl)carbamimidothioate]			localized membrane fluorescence and very little intracellular fluorescence	substantially reduced	
